One may read the EC50 as the concentration at which the effect is half-maximal.

Where two headings read alike, the source gives them in different places.

In series [1] the test system is hMRC5. Nature of the series: MRC5 cell assay. It counts as cell-based. Particulars: Homo sapiens, mean of two or more determinations.
A short description of series [2]: In vitro intrinsic clearance assay (CLint (m)). It counts as in vitro ADME. The settings on record: female CD1 mouse liver microsomes, 0.5 μM compound. The procedure: […]; 0.5 mg (mL 50 mM potassium phosphate buffer)^−1, pH 7.4), and the reaction was started by the addition of excess NADPH (8 mg (mL 50 mM potassium phosphate buffer)^−1, pH 7.4). Immediately, at time zero, then at 3, 6, 9, 15 and 30 min, an aliquot (50 μL) of the incubation mixture was removed and mixed with acetonitrile (100 μL) to stop the reaction. Internal standard was added to all samples, the samples were centrifuged (10 min, 5 °C, 3270 g) to sediment precipitated protein and the plates then sealed prior to UPLC–MS/MS analysis using a Quattro Premier XE (Waters Corp., USA).
XLfit (IDBS, UK) was used to calculate the exponential decay and consequently the rate constant (k) from the ratio of peak area of test compound to internal standard at each time point. The rate of intrinsic clearance (CLint: [mL min^−1 (g liver)^−1]) of each test compound was then calculated using Equation (1), in which V [mL (mg protein)^−1] is the incubation volume per mg protein added, and microsomal protein yield is taken as 52.5 mg protein per gram of liver. Verapamil (0.5 μM) was used as a positive control to confirm acceptable assay performance.

A further series deals with T. brucei. The series is described as follows: T. brucei parasite growth assay. Particulars: Trypanosoma brucei; mean of two or more determinations. It counts as cell-based, Trypanosoma brucei.
Series [3] is described as follows: In vitro plasma protein binding, equilibrium dialysis. It counts as in vitro ADME. Particulars: female CD1 mouse plasma, equilibrium dialysis 5 h; read-out: PPB (converted). The procedure: In vitro plasma protein binding experiments: In brief, a 96-well equilibrium dialysis apparatus was used to determine the free fraction in plasma for each compound (HT Dialysis LLC, Gales Ferry, CT, USA). Membranes (12-14 kDa cutoff) were conditioned in deionised water for 60 min, followed by conditioning in 80:20 deionised water/EtOH for 20 min, and then rinsed in isotonic buffer before use. Female CD1 mouse plasma was removed from the freezer and allowed to thaw on the day of experiment. Thawed plasma was then centrifuged (Allegra […], Beckman Coulter, USA, 10 min, 5 °C, 3270 g), spiked with test compound (10 μg g^-1), and 150 μL aliquots (n=6 replicate determinations) loaded into the 96-well equilibrium dialysis plate. Dialysis versus isotonic buffer (150 μL) was carried out for 5 h in a temperature-controlled incubator at ∼37 °C (Barworld Scientific Ltd., UK) using an orbital microplate shaker at 125 rpm (Barworld Scientific). At the end of the incubation period, aliquots of plasma or buffer were transferred to micronic tubes (Micronic B.V., the Netherlands), and the composition in each tube was balanced with control fluid such that the volume of buffer to plasma was the same. […] All samples were analysed by UPLC-MS/MS on a Quattro Premier XE Mass Spectrometer (Waters Corp., USA). The unbound fraction was determined as the ratio of the peak area in buffer to that in plasma.
On the technique in general: Equilibrium dialysis compares concentrations on both sides of a semipermeable membrane.

Series [4] concerns hMRC5. On the set-up: method as in PMID 20360736. The settings on record: previously published inhibitor; cited from earlier work.

Method for T. brucei: Parasite and NMT assays: These were carried out as described previously.[8–10]

On to `Cc1cc(CN2C(=O)COc3c(CCCCC4CCN(C)CC4)cccc32)no1` [Compound 41, 4-((5-Methylisoxazol-3-yl)methyl)-8-(4-(1-methylpiperidin-4-yl)butyl)-2H-benzo[b][1,4]oxazin-3(4H)-one], for which the EC50 in the series on hMRC5 [1] is 19000 nM; in the series with T. brucei, 190 nM. Besides, the “CLint (m)” value in series [2] is 10 mL min^−1 (g liver)^−1. In series [3], the fraction unbound at 5 h, 10 μg g^−1 was 0.18.
On the same counts, the results for `Cc1cc(CN2C(=O)COc3cc(CCCCC4CCN(C)CC4)ccc32)no1` [Compound 44, 4-((5-Methylisoxazol-3-yl)methyl)-7-(4-(1-methylpiperidin-4-yl)butyl)-2H-benzo[b][1,4]oxazin-3(4H)-one] are 10000 nM, 7 nM, 12 mL min^−1 (g liver)^−1 and 0.06.
As to `Cc1nn(C)c(C)c1NS(=O)(=O)c1c(Cl)cc(-c2ccnc(N3CCNCC3)c2)cc1Cl` [DDD85646], the EC50 in the series with hMRC5 [4] is 400 nM.

(Values after PMC4648043, “Development of Small-Molecule Trypanosoma brucei N-Myristoyltransferase Inhibitors: Discovery and Optimisation of a Novel Binding Mode” (Chemmedchem, 2015).)
